B1: Abciximab: monoclonal antibody for GPIIb/IIIa (c7E3 Fab) (antibody, chains of the INN, looked up, V domains shown)
VH: EVQLQQSGTVLARPGASVKMSCEASGYTFTNYWMHWVKQRPGQGLEWIGAIYPGNSDTSYIQKFKGKAKLTAVTSTTSVYMELSSLTNEDSAVYYCTLYDGYYVFAYWGQGTLVTVSA
VL: EIVLTQSPVTLSVTPGDSVSLSCRASRDISNNLHWFQQTSHESPRLLIKYASQSMSGIPSRFSGSGSGTDFTLSINSVETEDFGMYFCQQTNSWPYTFGGGTKLEIK
modifications: Fab

Experiments:
[1] = tested on: thrombosis; details: U.S. Pat. No. 6,103,705, cited from earlier work
[2] = tested on: TF-induced clot formation/strength; test: Tissue factor-triggered thrombelastography (TEG), clot strength; type: cell-based; details: GPIIb/IIIa antagonists added to TEG cup with CaCl2 and TF; mimics platelet removal from whole blood
Procedure: Thrombelastography: Clot formation was monitored at 37° C. in an oscillating plastic cylindrical cuvette (“cup”) and a coaxially suspended stationary piston (“pin”) with a 1 mm clearance between the surfaces, using a computerized Thrombelastograph (CTEG Model 3000, Haemoscope, Skokie, Ill.) as described by Mousa et al., Athero Thromb Vasc Biol 2000. The cup oscillates 4°45′ ( 1/12 radian) in either direction every 4.5 seconds, with a 1 second mid-cycle stationary period; resulting in a frequency of 0.1 Hz and a maximal shear rate of 0.1 per second. The pin is suspended by a torsion wire that acts as a torque transducer. […] The torque experienced by the pin (relative to the cup's oscillation) is plotted as a function of time (Essel et al., J Cardiovascular Anesth., 7:410-415, 1993; Mousa et al., Arteriosclerosis Thromb Vasc Biol., 20:1162-1167, 2000). The amplitude on the TEG tracing is a measure of the rigidity of the clot; the peak strength or the shear elastic modulus attained by the clot, G, is a function of clot rigidity and can be calculated from the maximal amplitude (MA) of the TEG (Mousa et al., Arteriosclerosis Thromb Vasc Biol., 20:1162-1167, 2000).
Platelet Contribution to Clot Strength: To assess the effect of the TF modification on peak clot strength (G) was measured with and without the addition of TF in paired samples of WB and PRP. To document the contribution of activated platelets to the elastic modulus of fibrin clots, the effect of platelet number was measured by serially diluting PRP with PPP. The platelet count of each dilution was measured before performing TEG. Tissue factor-triggered TEG was performed with increasing concentrations added to the TEG cups. […] The Thrombelastograph maximum amplitude (MA) for platelets MA (PLT)) was calculated by subtracting the MA from a platelet-poor plasma (PPP) sample MA (PPP) determined in one TEG well from that of whole blood MA (WB) run simultaneously in the second TEG well.

[3] = tested on: platelet aggregation; details: combined with LMWH; 0.5 IU/ml thrombin; cited from earlier work

| Molecule | anti-thrombotic effect on co-administration with the LMWH enoxaparin ([1]; intravenous, sub-effective or reduced levels) | anti-thrombotic effect on co-administration with standard heparin ([1]; same reduced level of the GPIIb/IIIa antagonist) | maximal blockade (clot strength) [2] [%] | effect of sub-therapeutic concentrations on the dose-response relationship of LMWH [3] |
| --- | --- | --- | --- | --- |
| CCCCS(=O)(=O)N[C@@H](Cc1ccc(OCCCCC2CCNCC2)cc1)C(=O)O [BSPBPA] | enhanced anti-thrombotic effect | This was not the case |  |  |
| CCCCOC(=O)N[C@@H](CNC(=O)C[C@H]1CC(c2ccc(C(=N)N)cc2)=NO1)C(=O)O [XV459] |  |  | 80 |  |
| CCCCOC(=O)N[C@@H](CNC(=O)C[C@H]1CC(c2ccc(C(=N)N)cc2)=NO1)C(=O)OC [roxifiban] |  |  | 80 | significant enhancement (synergy) of anti-thrombotic efficacy |
| B1 |  |  | 80 | significant enhancement (synergy) of anti-thrombotic efficacy |
